In PubChem BioAssay AID1963964 (Molecular Pharmacology Branch, DTP, NCI, 2024):

Test system: 997726-040-R-J2-PDC tumor spheroids, viability
Test: Anticancer human tumor 997726-040-R-J2-PDC patient-derived squamous cell lung carcinoma cell line growth inhibition [PI3K]
Settings: spheroids with HUVEC and MSC; for IC50: curve of first compound; for viability, T/C: stronger effect = lower value
Summary of the method: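 Multi-cell spheroids combine tumor cells with HUVEC and human MSCs, treated with targeted agents alone or with inavolisib, alpelisib, duvelisib or copanlisib. Concentrations fall in half-log steps from at or near clinical Cmax, or from 10 microM where Cmax is unknown; viability read-out.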
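Further: spheroids exposed to compounds for seven days before readout.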

## C=CC(=O)N1CCN(c2nc(=O)n(-c3c(C)ccnc3C(C)C)c3nc(-c4c(O)cccc4F)c(F)cc23)C(C)C1 (configuration not stated) + CC(Nc1ncnc2nc[nH]c12)c1cc2cccc(Cl)c2c(=O)n1-c1ccccc1
Second compound 0.0316 µM
  IC50: > 10 µM
Second compound 0.1 µM
  IC50: > 10 µM
Second compound 0.316 µM
  IC50: > 10 µM
Second compound 1 µM
  IC50: > 10 µM
Second compound 3.16 µM
  IC50: > 10 µM
Second compound 10 µM
  IC50: > 10 µM
Second compound 0.0316 µM, first compound 0.0316 µM
  viability, T/C: 91.5%
Second compound 0.0316 µM, first compound 0.1 µM
  viability, T/C: 112%
Second compound 0.0316 µM, first compound 0.316 µM
  viability, T/C: 107%
Second compound 0.0316 µM, first compound 1 µM
  viability, T/C: 106%
Second compound 0.0316 µM, first compound 3.16 µM
  viability, T/C: 123%
Second compound 0.0316 µM, first compound 10 µM
  viability, T/C: 130%
Second compound 0.1 µM, first compound 0.0316 µM
  viability, T/C: 108%
Second compound 0.1 µM, first compound 0.1 µM
  viability, T/C: 103%
Second compound 0.1 µM, first compound 0.316 µM
  viability, T/C: 101%
Second compound 0.1 µM, first compound 1 µM
  viability, T/C: 104%
Second compound 0.1 µM, first compound 3.16 µM
  viability, T/C: 113%
Second compound 0.1 µM, first compound 10 µM
  viability, T/C: 126%
Second compound 0.316 µM, first compound 0.0316 µM
  viability, T/C: 104%
Second compound 0.316 µM, first compound 0.1 µM
  viability, T/C: 95%
Second compound 0.316 µM, first compound 0.316 µM
  viability, T/C: 104%
Second compound 0.316 µM, first compound 1 µM
  viability, T/C: 102%
Second compound 0.316 µM, first compound 3.16 µM
  viability, T/C: 133%
Second compound 0.316 µM, first compound 10 µM
  viability, T/C: 113%
Second compound 1 µM, first compound 0.0316 µM
  viability, T/C: 86.7%
Second compound 1 µM, first compound 0.1 µM
  viability, T/C: 86.4%
Second compound 1 µM, first compound 0.316 µM
  viability, T/C: 92.7%
Second compound 1 µM, first compound 1 µM
  viability, T/C: 98.4%
Second compound 1 µM, first compound 3.16 µM
  viability, T/C: 120%
Second compound 1 µM, first compound 10 µM
  viability, T/C: 109%
Second compound 3.16 µM, first compound 0.0316 µM
  viability, T/C: 72.2%
Second compound 3.16 µM, first compound 0.1 µM
  viability, T/C: 75.4%
Second compound 3.16 µM, first compound 0.316 µM
  viability, T/C: 78.9%
Second compound 3.16 µM, first compound 1 µM
  viability, T/C: 85.3%
Second compound 3.16 µM, first compound 3.16 µM
  viability, T/C: 96.2%
Second compound 3.16 µM, first compound 10 µM
  viability, T/C: 95.6%
Second compound 10 µM, first compound 0.0316 µM
  viability, T/C: 58.1%
Second compound 10 µM, first compound 0.1 µM
  viability, T/C: 51%
Second compound 10 µM, first compound 0.316 µM
  viability, T/C: 60.8%
Second compound 10 µM, first compound 1 µM
  viability, T/C: 55.8%
Second compound 10 µM, first compound 3.16 µM
  viability, T/C: 64.7%
Second compound 10 µM, first compound 10 µM
  viability, T/C: 68.8%
